{"source": "patent US20150190523A1", "about": "“BIOAVAILABILITY OF ORAL METHYLNALTREXONE INCREASES WITH A PHOSPHATIDYLCHOLINE-BASED FORMULATION” (The University of Chicago, priority 2012, published 2015)", "key": {"[1]": {"conditions": "white crystalline powder, typically bromide salt, commercially provided; cited from earlier work"}, "[2]": {"assay": "Pharmacokinetics of MNTX in rat plasma after oral gavage (LC/MS/MS)", "conditions": "male, Sprague-Dawley, in vivo, 250 mg/kg; for AUC(0-t) / Cmax / Tmax: rats, 250 mg/kg oral", "method": "Animals, MNTX Administration, and Blood Collection.\nThe experimental protocol was approved by the Institutional Animal Care and Use Committee. Male Sprague-Dawley rats (190-200 g) were obtained from Luye Pharma (Yantai, China) (Wang et al., 2010). Rats were allowed to acclimatize in environmentally controlled quarters (24±2° C. and a 12:12 h light-dark cycle). The rats were fasted for 12 h prior to the experiments.\nTen rats received test compounds via oral gavage. […] Venous blood samples were drawn from the ocular venous plexus at 0, 10, 20, 30, 45, 60, 90, 120, 150, 180, 240, 300, 420 and 540 min. The samples were placed into heparinized tubes and centrifuged at 1500×g for 5 min. The plasma samples were immediately stored in a freezer (−20° C.) for the pending assay.\nPlasma Sample Processing.\nA […] plasma sample was transferred to a 1.5 mL microcentrifuge tube. Then 0.2 mL of acetonitrile and […] of ketamine hydrochloride (I.S.) were mixed with the plasma sample and vortexed for 5 min before being centrifuged at 1500×g for 5 min. The supernatant was transferred to another tube and dried under a gentle flow of nitrogen. The residue was dissolved in […] of mobile phase, and then centrifuge at 15,000×g for 10 min. Lastly, 5 μL of supernatant was injected into the LC/MS/MS system for analysis.\nDetermination of MNTX Concentration by LC/MS/MS.\nThe concentrations of MNTX in rat plasma samples were determined with LC/MS/MS. MNTX plasma levels and the internal standard determined by LC/MS/MS were tested at the time points listed above. The assay was performed using an HPLC system with an Agilent 1100 pump, an Agilent 1100 auto sampler, and a Hanbang C18 column (150 mm×2.1 mm, 5 μm) with a guard column (Wang et al., 2011). For the mobile phase, methanol/water (60/40, containing 0.1% of acetic acid) was pumped at a flow rate of 0.2 mL/min. The samples were stored at 4° C. in the auto sampler before 5 μL was injected into the column. The detector was an API 4000 triple quadruple mass (MS) spectrometer (Applied Biosystems, Foster City, Calif.), and Analyst™ software version 4.1 was used for MS control and spectral processing. Using electrospray ionization (ESI) in positive ion mode, the MS parameters were optimized as follows: heater temperature, 350° C.; ion source voltage, 4000V. Multiple reaction monitoring was used, and the selected single charged precursor-production ion pairs were m/z 356.08→226.95 for MNTX and m/z 237.93→125.05 for ketamine hydrochloride.\nData analysis. Pharmacokinetic data were analyzed by software (Kinetic 4.4; Thermo Electron Co., Waltham. Mass.). All data were expressed as the mean±standard error (S.E.). A one-way ANOVA determined whether the results had statistical significance. The level of statistical significance was set at P<0.05."}}}
{"smiles": "C[N+]1(CC2CC2)CCC23c4c5ccc(O)c4OC2C(=O)CCC3(O)C1C5", "note": "(centres unmarked) [MNTX, methylnaltrexone bromide]", "values": [{"measurement": "solubility in water", "setting": "[1]", "result": "freely soluble in water"}, {"measurement": "AUC", "setting": "[2]", "result": 1060, "unit": "ng·h/mL"}, {"measurement": "half-life", "setting": "[2]", "result": 4.32, "unit": "h"}, {"measurement": "AUC(0-t)", "setting": "[2]; AUC0-540 min, 0 to 540 min, mean±S.E.", "result": "1410 ± 448", "unit": "ng·h/mL"}, {"measurement": "AUC(0-t)", "setting": "[2]; First peak AUC0-150 min, 0 to 150 min, n=5, mean", "result": "341 ± 94.5", "unit": "ng·h/mL"}, {"measurement": "Cmax", "setting": "[2]; First peak Cmax, first plasma peak, n=5, mean", "result": "276 ± 102", "unit": "ng/mL"}, {"measurement": "Tmax", "setting": "[2]; First peak Tmax, first plasma peak", "result": 2, "unit": "h"}, {"measurement": "Cmax", "setting": "[2]; Second peak Cmax, second plasma peak, n=5, mean", "result": "448 ± 126", "unit": "ng/mL"}, {"measurement": "Tmax", "setting": "[2]; Second peak Tmax, second plasma peak", "result": 3, "unit": "h"}, {"measurement": "Cmax", "setting": "[2]; peak plasma concentration (Cmax), overall profile, mean±S.E.", "result": "448 ± 126", "unit": "ng/mL"}, {"measurement": "Tmax", "setting": "[2]; time to peak plasma concentration (Tmax), overall profile", "result": 3, "unit": "h"}]}
